{"source": "patent US11980209B2", "about": "“Consumables” (GIVAUDAN SA, priority 2007, dated 2024)", "type_in_all_cases": "in vivo, human", "key": {"[1]": {"system": "perceived sweetness (sweet sensitive panelists)", "experiment": "Sweetness enhancement by trilobatin in cereals (Example 11)", "conditions": "tested in whole milk, vs cereal with 1% added sucrose", "protocol": "Trilobatin was tested by 4 sweet sensitive panelists in cereal samples (cereals from Kix, General Mills; USA). The cereal is a comparatively low sugar product and contains 3 g sucrose per 30 g cereal. Panelists tested the samples in whole milk. To the cereal samples, sucrose was topically added by spraying the corresponding amount of a 10% sucrose solution in water to give 1%. The samples were baked at 250° C. for about 15 minutes in a convection oven to dry/remove the water. Similarly, trilobatin was applied to cereal samples as a 0.1% solution in 50/50 w/w ethanol/water to give various trilobatin concentrations (100 ppm, 200 ppm, 400 ppm)."}, "[2]": {"system": "perceived sweetness (panelists)", "experiment": "Sweetness detection threshold of trilobatin in milk (Example 10)", "protocol": "Trilobatin was tested by 6 panelists in whole milk.\nMilk samples were 62.5 ppm, 125 ppm, 250 ppm, 500 ppm trilobatin; 1% sucrose, and 2% sucrose."}, "[3]": {"system": "perceived sweetness (sweet sensitive panelists)", "experiment": "Ranking test with R-index, sweetness of trilobatin (750 ppm) in yogurt (Example 13)", "conditions": "for R-index: critical value 37.4 to 62.6%", "protocol": "The sucrose concentration isointense to 750 ppm trilobatin in a plain yogurt base was determined as follows.\nSamples contained a plain yogurt base with 750 ppm trilobatin, or the same plain yogurt base with sucrose in various concentrations (0%, 0.5%, 1.0%, 1.5%, and 2.0% sucrose).\n30 ml of each yogurt sample was served cold, in random order, to 21 sweet sensitive panelists. In two replications over 1 session, panelists were asked to rank the samples from least sweet to most sweet. The data was subjected to an R-index analysis."}, "[4]": {"system": "perceived sweetness (sweet sensitive panelists)", "experiment": "Sweetness detection threshold of trilobatin in yoghurt (Example 8)", "conditions": "for Sweetness of 500 ppm trilobatin sample: plain nonfat yoghurt", "protocol": "(§1) Trilobatin was tested by 6 sweet sensitive panelists in plain nonfat yoghurt.\nYoghurt samples were 500 ppm trilobatin, 1% sucrose, and 2% sucrose. Panelists compared the 500 ppm trilobatin sample to each sucrose sample and compared the sweetness, the results are indicated in the table below."}, "[5]": {"system": "perceived sweetness (one panelist trained for sweetness detection)", "experiment": "Paired comparison of 20-100 ppm trilobatin versus 0-1% sucrose (Example 1a)", "protocol": "Trilobatin (20 ppm, 60 ppm, 100 ppm) in water samples were evaluated for isointensity to sucrose solutions in a concentration of 0, 0.5 and 1% sucrose using a paired comparison method. Samples were paired and tasted left to right with rinsing (water) in between, by one panelist trained for sweetness detection.\nThe trilobatin samples were compared to either 0%, 0.5%, or 1% sucrose solutions."}, "[6]": {"system": "perceived sweetness (sweet sensitive panelists)", "experiment": "Sweetness enhancement by trilobatin in yoghurt (Example 9)", "protocol": "as §1\nSamples of 62.5 ppm, 125 ppm, and 500 ppm trilobatin in yoghurt sweetened with 5% sucrose were compared by panelists to a 5% sucrose sweetened yoghurt and a 7% sucrose sweetened yoghurt sample; the results are indicated in the table below."}, "[7]": {"system": "perceived sweet taste (sweet sensitive panelists)", "experiment": "Ranking test with R-index, isointensity of 100 ppm trilobatin in water (Example 1b)", "conditions": "for R-index: critical values 35.39-64.61%", "protocol": "The sensory evaluation was conducted using a ranking method. Samples at ambient temperature were randomly presented in 15 ml blind aliquots (unidentifiable by panelists). Panels consisted of 15 sweet sensitive subjects and samples were presented in 2 replications over 1 session. After tasting each sample, the mouth was rinsed thoroughly with water at ambient temperature prior to tasting the next sample. Panelists were presented with 0.5%, 1%, 1.5% and 2% sucrose solutions in water and a fifth sample of 100 ppm trilobatin in water. Subjects were asked to rank the samples from low to high with respect to perceived sweet taste. R-indices were calculated for 100 ppm trilobatin versus either 0.5%, 1%, 1.5% or 2% sucrose."}, "[8]": {"system": "perceived sweet taste (sweet sensitive panelists)", "experiment": "Ranking test, isointensity of 200 ppm trilobatin in water (Example 1c)", "protocol": "The sensory evaluation was conducted using the method described in example 1b. The panels consisted of 7 sweet sensitive panelists. Panelists were presented with 0.5%, 1%, and 1.5% sucrose solutions in water and a fourth sample of 200 ppm trilobatin in water. Panelists were asked to rank the samples from low to high with respect to perceived sweet taste. 200 ppm trilobatin in water was determined to be isosweet to 1% sucrose.\nThe sweetness detection threshold for individuals within the average consumer group varies from below 0.4% to 0.7% sucrose or more. All examples were performed with sweet sensitive panelists able to detect at least 0.5% sucrose or less. Extrapolating from examples 1 a, b, and c, the concentration detectable by the average consumer will therefore be higher, and the average concentration near the sweetness detection threshold of the average consumer will be about 100 to 200 ppm."}, "[9]": {"conditions": "750 ppm TL in plain yogurt vs 0% sucrose yogurt"}, "[10]": {"conditions": "750 ppm TL in plain yogurt vs 0.5% sucrose yogurt"}, "[11]": {"conditions": "750 ppm TL in plain yogurt vs 1% sucrose yogurt"}, "[12]": {"conditions": "750 ppm TL in plain yogurt vs 1.5% sucrose yogurt"}, "[13]": {"conditions": "750 ppm TL in plain yogurt vs 2% sucrose yogurt"}, "[14]": {"conditions": "100 ppm trilobatin in water vs 0.5% sucrose"}, "[15]": {"conditions": "62.5 ppm trilobatin in yoghurt sweetened with 5% sucrose"}, "[16]": {"conditions": "125 ppm trilobatin in yoghurt sweetened with 5% sucrose"}, "[17]": {"conditions": "500 ppm trilobatin in 5% sucrose yoghurt"}}, "note": "Entries after “also recorded” stand apart in the source; their conditions may differ.", "data": [{"smiles": "O=C(CCc1ccc(O)cc1)c1c(O)cc(O[C@@H]2O[C@H](CO)[C@@H](O)[C@H](O)[C@H]2O)cc1O", "note": "[trilobatin, 1-[4-(beta-D-glucopyranosyloxy)-2,6-dihydroxyphenyl]-3-(4-hydroxyphenyl)-1-propanone]", "values": [{"measurement": "Sweetness trilobatin sample", "setting": "[1]; 100 ppm trilobatin on cereal", "value": "less sweet than 1% sucrose"}, {"measurement": "Sweetness trilobatin sample", "setting": "[1]; 200 ppm trilobatin on cereal", "value": "sweeter than 1% sucrose"}, {"measurement": "Sweetness trilobatin sample", "setting": "[1]; 400 ppm trilobatin on cereal", "value": "much sweeter than 1% sucrose,; also recorded: too sweet"}, {"measurement": "Trilobatin sample sweetness compared to sucrose", "setting": "[2]; 62.5 ppm in whole milk, 6/6 panelists", "value": "below 1% sucrose (6/6)"}, {"measurement": "Trilobatin sample sweetness compared to sucrose", "setting": "[2]; 125 ppm in whole milk, 6/6 panelists", "value": "below 1% sucrose (6/6)"}, {"measurement": "Trilobatin sample sweetness compared to sucrose", "setting": "[2]; 250 ppm in whole milk, 6/6 panelists", "value": "below 1% sucrose (6/6)"}, {"measurement": "Trilobatin sample sweetness compared to sucrose", "setting": "[2]; 500 ppm in whole milk, 3/6 panelists (below)", "value": "below 1% sucrose (3/6)"}, {"measurement": "sweetness TL sample", "setting": "[3]; [9]", "value": "sweeter"}, {"measurement": "R-index", "setting": "[3]; [9]", "value": 82.6, "unit": "%"}, {"measurement": "sweetness TL sample", "setting": "[3]; [10]", "value": "isosweet"}, {"measurement": "R-index", "setting": "[3]; [10]", "value": 58.5, "unit": "%"}, {"measurement": "sweetness TL sample", "setting": "[3]; [11]", "value": "less"}, {"measurement": "R-index", "setting": "[3]; [11]", "value": 14.7, "unit": "%"}, {"measurement": "sweetness TL sample", "setting": "[3]; [12]", "value": "less"}, {"measurement": "R-index", "setting": "[3]; [12]", "value": 4.4, "unit": "%"}, {"measurement": "sweetness TL sample", "setting": "[3]; [13]", "value": "less"}, {"measurement": "R-index", "setting": "[3]; [13]", "value": 3.3, "unit": "%"}, {"measurement": "isointensity to sucrose", "setting": "[3]; 750 ppm trilobatin in plain yogurt", "value": 0.5, "unit": "% sucrose"}, {"measurement": "own sweetness equivalent to sucrose", "setting": "[4]; 500 ppm trilobatin in yoghurt", "value": 1, "unit": "% sucrose"}, {"measurement": "Sweetness of 500 ppm trilobatin sample", "setting": "[4]; vs 1% sucrose yoghurt sample", "value": "slightly less sweet/similarly sweet"}, {"measurement": "Sweetness of 500 ppm trilobatin sample", "setting": "[4]; vs 2% sucrose yoghurt sample", "value": "less sweet"}, {"measurement": "Taste of trilobatin samples compared to sucrose", "setting": "[5]; 20 ppm trilobatin in water vs 0% sucrose", "value": "isosweet"}, {"measurement": "Taste of trilobatin samples compared to sucrose", "setting": "[5]; 20 ppm trilobatin in water vs 0.5% sucrose", "value": "notably less sweet"}, {"measurement": "isointensity to sucrose, by interpolation", "setting": "[5]; 60 ppm trilobatin in water", "value": 0.25, "unit": "% sucrose"}, {"measurement": "Taste of trilobatin samples compared to sucrose", "setting": "[5]; 60 ppm trilobatin in water vs 0% sucrose", "value": "weakly sweeter"}, {"measurement": "Taste of trilobatin samples compared to sucrose", "setting": "[5]; 60 ppm trilobatin in water vs 0.5% sucrose", "value": "less sweet"}, {"measurement": "Taste of trilobatin samples compared to sucrose", "setting": "[5]; 100 ppm trilobatin in water vs 0% sucrose", "value": "sweeter"}, {"measurement": "Taste of trilobatin samples compared to sucrose", "setting": "[5]; [14]", "value": "isosweet"}, {"measurement": "Taste of trilobatin samples compared to sucrose", "setting": "[5]; 100 ppm trilobatin in water vs 1% sucrose", "value": "less sweet"}, {"measurement": "sweetness trilobatin compared to 5% sucrose sample", "setting": "[6]; [15]", "value": "+ sweeter"}, {"measurement": "sweetness trilobatin compared to 7% sucrose sample", "setting": "[6]; [15]", "value": "less sweet"}, {"measurement": "sweetness trilobatin compared to 5% sucrose sample", "setting": "[6]; [16]", "value": "++ sweeter"}, {"measurement": "sweetness trilobatin compared to 7% sucrose sample", "setting": "[6]; [16]", "value": "less sweet"}, {"measurement": "sucrose level that the 5% sucrose sample tastes like", "setting": "[6]; [17]", "value": 7, "unit": "%"}, {"measurement": "sweetness enhancement effect equivalent to added sucrose", "setting": "[6]; [17]", "value": 1, "unit": "% sucrose"}, {"measurement": "sample sweetness (trilobatin, 100 ppm)", "setting": "[7]; 100 ppm in water vs 0.5% sucrose solution", "value": "Isosweet"}, {"measurement": "sample sweetness (trilobatin, 100 ppm)", "setting": "[7]; 100 ppm in water vs 1.0% sucrose solution", "value": "Less sweet"}, {"measurement": "sample sweetness (trilobatin, 100 ppm)", "setting": "[7]; 100 ppm in water vs 1.5% sucrose solution", "value": "Less sweet"}, {"measurement": "sample sweetness (trilobatin, 100 ppm)", "setting": "[7]; 100 ppm in water vs 2.0% sucrose solution", "value": "Less sweet"}, {"measurement": "isointensity to sucrose", "setting": "[7]; 100 ppm trilobatin in water", "value": 0.5, "unit": "% sucrose"}, {"measurement": "R-index", "setting": "[7]; [14]", "value": 44, "unit": "%"}, {"measurement": "R-index", "setting": "[7]; 100 ppm trilobatin in water vs 1.0% sucrose", "value": 13, "unit": "%"}, {"measurement": "R-index", "setting": "[7]; 100 ppm trilobatin in water vs 1.5% sucrose", "value": 0, "unit": "%"}, {"measurement": "R-index", "setting": "[7]; 100 ppm trilobatin in water vs 2.0% sucrose", "value": 0, "unit": "%"}, {"measurement": "isointensity to sucrose", "setting": "[8]; 200 ppm trilobatin in water", "value": 1, "unit": "% sucrose"}, {"measurement": "average concentration near the sweetness detection threshold of the average consumer", "setting": "[8]; extrapolating from examples 1a, b and c", "value": "100 to 200", "unit": "ppm"}]}]}
